Measurements from ChEMBL document CHEMBL1158791, “Grayanane diterpenoids from the flowers of Rhododendron molle with cytotoxic activity against a Spodoptera frugiperda cell line” (J Nat Prod, 2005).
In brackets after ≈: the same amount, converted by molar mass.

Test: Cytotoxicity against Spodoptera frugiperda Sf9 cells after 48 hrs
Type: functional, cell-based
Settings: Sf9, 48 h

Q: For `C/C=C(\C)C(=O)O[C@H]1C[C@@H](OC(C)=O)[C@@]2(C(=O)OC)CO[C@H]3[C@@H](O)[C@@](C)([C@]45O[C@@]4(C)[C@@H]4C[C@H]5O[C@@H]5OC=C[C@@]54O)[C@H]4[C@]1(CO[C@]4(O)C(=O)OC)[C@@H]32` [AZADIRACHTIN A], which IC50 is on record?
A: Its IC50 is 20.3 µg/mL (≈ 28.2 µM).

Q: Which IC50 does the source give for `C=C1[C@@H]2[C@H](OC)[C@H](O)C(C)(C)[C@@]2(O)[C@H](O)C[C@]23C[C@@](C)(O)[C@H](CC[C@@H]12)[C@H]3O` [RHODOMOLIN A] here?
A: The IC50 was 37.8 µg/mL (≈ 98.8 µM).

Q: Which IC50 does the source give for `C=C1[C@@H]2[C@H](O)[C@H](O)C(C)(C)[C@@]2(O)[C@H](O)C[C@]23C[C@@](C)(O)[C@H](CC[C@@H]12)[C@H]3OC(C)=O` [RHODOMOLIN B] here?
A: The IC50 was 25.6 µg/mL (≈ 62.4 µM).

Q: For `CC1(C)[C@H]2O[C@H]2[C@H]2[C@](C)(O)[C@@H]3CC[C@@H]4[C@H](O)[C@@]3(C[C@@H](O)[C@@]21O)C[C@@]4(C)O` [RHODOJAPONIN], which IC50 is on record?
A: Its IC50 is 12.6 µg/mL (≈ 34.2 µM).
